# According to patent US20070104644A1, “Inhibitor imaging agents” (priority 2003, published 2007):
# pKi: −log10 of the molar value. Numbered stars: 1 amine (or outer) side, 2 acyl side, 3 side chain; on linkers, the order of the positions; unused ones are H or OH. Square brackets hold non-standard residues; d marks the D form. Peptide text beside a SMILES is read from it. * marks the point of attachment. Tyr(3-I) = N[C@@H](Cc1ccc(O)c(I)c1)C(=O)O; X2 = O=C(NO)C1(N(CCC(=O)[*:2])[*:1])CCCC1; X1 = O=S(=O)(c1ccc(Oc2ccc(F)cc2)cc1)*
# Key:
# MMP-8 = MMP-8 (Homo sapiens, UniProt P22894); assay: MMP-8 colorimetric assay kit (Biomol AK-414); format: biochemical
# Method: (§1) Compounds were screened using the following commercially available Biomol assay kits: • MMP-1 colorimetric assay kit—Catalogue number AK-404, • MMP-2 colorimetric assay kit—Catalogue number AK-408, • MMP-8 calorimetric assay kit—Catalogue number AK-414, • MMP-9 calorimetric assay kit—Catalogue number AK-410, • MMP-12 colorimetric assay kit—Catalogue number AK-402, Which are available from Affiniti Research Products Ltd. (Palatine House, Matford Court, Exeter, EX2 8NL, UK).
# (§2) Inhibitors were provided in powdered form, and stored at 4° C. For each inhibitor a 1 mM stock solution in DMSO was prepared, dispensed into 20 μl aliquots and these aliquots stored at −20° C. The stock solution was diluted to give 8 inhibitor concentrations (recommended: 50 μM, 5 μM, 500 nM, 50 nM, 5 nM, 500 pM, 50 pM and 5 pM). Dilutions were made in the kit assay buffer. A five-fold dilution of the inhibitor stocks is made on addition to the assay wells, therefore final concentration range was from 10 μM to 1 pM.
# (§3) Details are provided with the commercial kit, but can be summarised as follows: • Prepare test compound dilutions as above, • Add assay buffer to plate, • Add test compounds to plate • Prepare standard kit inhibitor NNGH (see kit for dilution factor) • Add NNGH to control inhibitor wells • Prepare MMP enzyme (see kit for dilution factor) • Add MMP to plate • Incubate plate at 37° C. for ˜15 min • Prepare thiopeptolide substrate (see kit for dilution factor) • Add substrate to plate • Count every 2 min for 1 hr, 37° C., 414 nm on a Labsystems iEMS plate reader (for MMP-1 count every 30 seconds for 20 minutes).
# MMP-1 = target: T1, MMP-1 (Homo sapiens, UniProt P03956); assay: MMP-1 colorimetric assay kit (Biomol AK-404); format: biochemical
# T1 sequence (P03956 100-469): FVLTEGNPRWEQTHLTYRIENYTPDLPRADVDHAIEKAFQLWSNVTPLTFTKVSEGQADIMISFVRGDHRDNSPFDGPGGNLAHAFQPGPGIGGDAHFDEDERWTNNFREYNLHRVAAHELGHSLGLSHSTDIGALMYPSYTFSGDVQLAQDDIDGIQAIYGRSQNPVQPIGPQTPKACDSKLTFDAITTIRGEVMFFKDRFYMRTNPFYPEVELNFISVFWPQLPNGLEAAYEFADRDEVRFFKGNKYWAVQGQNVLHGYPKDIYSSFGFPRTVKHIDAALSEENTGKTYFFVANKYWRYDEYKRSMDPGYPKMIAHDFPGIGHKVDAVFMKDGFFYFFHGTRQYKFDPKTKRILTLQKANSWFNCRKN
# Method: as §1, §2, §3
# MMP-9 = MMP-9 (Homo sapiens, UniProt P14780); assay: MMP-9 colorimetric assay kit (Biomol AK-410); format: biochemical
# Method: as §1, §2, §3
# MMP-2 = target: T2, MMP-2 (Homo sapiens, UniProt P08253); assay: MMP-2 colorimetric assay kit (Biomol AK-408); format: biochemical
# T2 sequence (P08253 110-660): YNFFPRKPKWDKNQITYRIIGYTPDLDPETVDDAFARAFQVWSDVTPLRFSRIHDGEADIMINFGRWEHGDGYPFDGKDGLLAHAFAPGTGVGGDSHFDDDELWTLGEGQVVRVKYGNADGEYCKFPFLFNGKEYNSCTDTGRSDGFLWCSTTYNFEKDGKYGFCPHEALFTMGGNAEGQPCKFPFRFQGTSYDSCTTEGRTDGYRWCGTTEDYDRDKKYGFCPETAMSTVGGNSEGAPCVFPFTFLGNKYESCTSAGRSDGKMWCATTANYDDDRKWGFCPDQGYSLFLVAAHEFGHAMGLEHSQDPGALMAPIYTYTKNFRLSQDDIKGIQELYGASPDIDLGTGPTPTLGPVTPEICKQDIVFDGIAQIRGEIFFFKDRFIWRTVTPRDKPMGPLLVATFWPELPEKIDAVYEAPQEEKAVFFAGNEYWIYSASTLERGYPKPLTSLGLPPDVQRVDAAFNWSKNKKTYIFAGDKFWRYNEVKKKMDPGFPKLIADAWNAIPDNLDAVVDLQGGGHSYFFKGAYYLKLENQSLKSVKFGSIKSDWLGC
# Method: as §1, §2, §3
# MMP-12 = MMP-12 (Homo sapiens, UniProt P39900); assay: MMP-12 colorimetric assay kit (Biomol AK-402); format: biochemical
# Method: as §1, §2, §3
# [1] = system: MDA-MB-231 tumour (human breast carcinoma xenograft); assay: Imaging in MDA-MB-231 tumour model in vivo
# Method: Imaging was performed with Compound 24A in the MDA-MB-231 tumour model (a human breast carcinoma xenograft model). […] 1999 May;17(3):231-8; • Lee et al, Eur. J Cancer, 2001; 37:106-113. • Weber et al Int J Oncol.
# [2] = In vitro rat plasma stability; format: in vitro ADME
# Method: Plasma and in vivo stability studies were performed with Compound 24A to determine the stability and metabolism of the compound.
# [3] = In vivo stability and metabolism in the rat
# Source text: Only plasma and bile samples could be analysed due to insufficient radioactivity within the urine.
# [4] = system: Lewis lung carcinoma (LLC) tumour; assay: Biodistribution in LLC tumour model in vivo; set-up: species or system C57BL/6 mice
# Method: 1×10^6 Lewis lung carcinoma (LLC) cells are injected subcutaneously into right inner thigh of C57BL/6 mice. Tumours were allowed to grow for 15 days prior to biodistribution being carried out.
# Biodistribution studies were performed in the LLC tumour model.
# Biodistribution was performed in the LLC tumour model of Example 23 with Compounds 46B and 48B.
# [5] = system: ApoE −/− mice, carotid artery; assay: Biodistribution in ApoE ligation model of atherosclerosis (ligated and sham); format: in vivo
# Source text: ApoE −/− mice are transgenic knock-out mice, which lack the ApoE gene, and are therefore unable to regulate their plasma cholesterol levels. As a consequence ApoE mice develop atherosclerotic lesions, a process which is accelerated with feeding of high fat diet. Further acceleration of lesion development can be achieved by ligating the carotid artery, resulting in advanced lesion formation within 4 weeks of surgery and high fat diet feeding.
# Two controls have been used for these experiments: (1) ApoE sham animals in which the mice undergo the same surgical intervention but the sture is only passed beneath the carotid and then removed and, (2) C57BL/6 ligtaed animals which undergo the same surgical ligation and high fat feeding as the ApoE ligated mice. Literature reports have stated that these animals do have some level of tissue remodelling, but with lower active MMP levels [Ivan et al, Circulation, 105, 2686-2691 (2002)].
# [6] = ApoE Ligated, 5 min post injection
# [7] = ApoE Ligated, 60 min post injection
# [8] = ApoE Sham, 60 min post injection
# Chain of MMP-9 (P14780 94-707): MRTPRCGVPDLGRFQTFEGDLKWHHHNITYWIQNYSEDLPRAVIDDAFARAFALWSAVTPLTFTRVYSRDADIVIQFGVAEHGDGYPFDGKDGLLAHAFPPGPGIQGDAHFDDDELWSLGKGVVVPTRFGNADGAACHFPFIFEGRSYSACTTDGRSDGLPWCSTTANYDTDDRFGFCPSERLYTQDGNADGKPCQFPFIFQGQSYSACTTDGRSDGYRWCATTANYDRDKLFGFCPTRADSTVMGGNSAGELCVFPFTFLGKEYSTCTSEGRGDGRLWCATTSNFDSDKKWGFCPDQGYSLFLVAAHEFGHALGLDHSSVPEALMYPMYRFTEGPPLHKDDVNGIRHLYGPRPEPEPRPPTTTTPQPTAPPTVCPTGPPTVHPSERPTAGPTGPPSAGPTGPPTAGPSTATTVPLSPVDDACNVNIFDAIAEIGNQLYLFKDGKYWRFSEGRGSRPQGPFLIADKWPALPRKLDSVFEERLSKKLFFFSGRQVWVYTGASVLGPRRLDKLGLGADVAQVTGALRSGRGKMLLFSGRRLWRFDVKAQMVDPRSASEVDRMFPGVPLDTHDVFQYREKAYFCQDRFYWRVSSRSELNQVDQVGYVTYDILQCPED
# Chain of MMP-8 (P22894 101-467): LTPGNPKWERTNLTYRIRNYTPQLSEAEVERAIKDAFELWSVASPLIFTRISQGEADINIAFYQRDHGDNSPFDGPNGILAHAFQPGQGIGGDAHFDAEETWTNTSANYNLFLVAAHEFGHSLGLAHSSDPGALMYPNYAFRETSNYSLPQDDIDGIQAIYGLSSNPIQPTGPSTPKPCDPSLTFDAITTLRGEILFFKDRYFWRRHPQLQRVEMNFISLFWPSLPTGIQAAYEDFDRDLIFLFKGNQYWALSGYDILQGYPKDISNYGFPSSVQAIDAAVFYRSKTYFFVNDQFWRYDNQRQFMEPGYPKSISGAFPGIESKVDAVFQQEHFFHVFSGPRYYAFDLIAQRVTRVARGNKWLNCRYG
# Chain of MMP-12 (P39900 106-470): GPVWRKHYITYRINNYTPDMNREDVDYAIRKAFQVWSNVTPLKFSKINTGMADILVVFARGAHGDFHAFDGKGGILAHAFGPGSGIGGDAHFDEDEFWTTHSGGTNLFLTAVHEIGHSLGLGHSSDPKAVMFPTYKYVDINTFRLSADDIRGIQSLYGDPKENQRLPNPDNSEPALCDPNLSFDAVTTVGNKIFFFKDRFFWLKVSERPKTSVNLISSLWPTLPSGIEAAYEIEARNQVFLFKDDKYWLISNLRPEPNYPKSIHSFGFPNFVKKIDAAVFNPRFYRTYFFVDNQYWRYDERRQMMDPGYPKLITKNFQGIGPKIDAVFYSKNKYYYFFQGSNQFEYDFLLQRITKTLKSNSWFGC
smiles,measurement,setting,value
NC(=O)[C@H](Cc1ccc(O)c(I)c1)NC(=O)[C@H](CCC(=O)O)NC(=O)[C@H](CCC(=O)O)NC(=O)[C@H](CCC(=O)O)NC(=O)[C@H](CCC(=O)O)NC(=O)[C@H](CCC(=O)O)NC(=O)CCN(C1(C(=O)NO)CCCC1)S(=O)(=O)c1ccc(Oc2ccc(F)cc2)cc1 [Compound 21] (X1-[X2]EEEEE[Tyr(3-I)]-NH2),pKi,MMP-8,9.06
same,pKi,MMP-1,6.71
same,pKi,MMP-9,9.09
same,pKi,MMP-2,8.94
O=C(CCN(C1(C(=O)NO)CCCC1)S(=O)(=O)c1ccc(Oc2ccc(F)cc2)cc1)NCCc1ccc(O)c(I)c1 [Compound 24],pKi,MMP-8,8.41
same,pKi,MMP-1,5.31
same,pKi,MMP-9,9.24
same,pKi,MMP-12,9.17
same,pKi,MMP-2,9.85
NC(=O)[C@H](CCCCNC(=O)CON=Cc1ccc(F)cc1)NC(=O)CCOCCOCCOCCOCCOCCOCCOCCOCCOCCOCCOCCNC(=O)CCOCCOCCOCCOCCOCCOCCOCCOCCOCCOCCOCCNC(=O)CCN(C1(C(=O)NO)CCCC1)S(=O)(=O)c1ccc(Oc2ccc(F)cc2)cc1 [Compound 48],pKi,MMP-8,9.30
same,pKi,MMP-1,7.48
same,pKi,MMP-9,9.70
NC(=O)[C@H](Cc1ccc(O)c(I)c1)NC(=O)CCOCCOCCOCCOCCOCCOCCOCCOCCOCCOCCOCCNC(=O)CCN(C1(C(=O)NO)CCCC1)S(=O)(=O)c1ccc(Oc2ccc(F)cc2)cc1 [Compound 44],pKi,MMP-9,10.12
same,pKi,MMP-2,9.60
O=C(CCN(C1(C(=O)NO)CCCC1)S(=O)(=O)c1ccc(Oc2ccc(F)cc2)cc1)NCCc1ccc(O)c([123I])c1 [Compound 24A],Tumour hotspots on imaging,[1],seen from 5 to 120 minutes post injection
same,In vitro rat plasma stability,"[2]; 2 hours, 37° C.",good stability
same,RCP of parent compound,[2]; start of incubation at 37° C.,93%
same,RCP of parent compound,[2]; through 2 hours incubation at 37° C.,80%
same,Metabolites detected in bile samples,[3]; in vivo,4
same,Metabolites detected in plasma samples,[3]; in vivo,One metabolite
same,Free iodide in plasma samples,"[3]; in vivo, through time",increasing amount of free iodide
same,In vivo stability and metabolism,[3]; through time in vivo,slight instability and metabolism
same,Background tissue uptake,[4],low background tissue uptake
same,Blood clearance / retention,[4],cleared very rapidly from the blood
same,Route of excretion,[4],primarily excreted through the hepatobiliary system (HBS)
same,Tumour uptake and retention,[4],Some retention was seen within tumour tissue
same,"% ID Urinary (urinary excretion), mean",[4]; 5 min post injection,7.17 % ID
same,"% ID/g Tumour, mean",[4]; 5 min post injection,0.6 % ID/g
same,"Tumour/Blood, mean",[4]; 5 min post injection,0.32
same,"Tumour/Heart, mean",[4]; 5 min post injection,0.27
same,"Tumour/Lung, mean",[4]; 5 min post injection,0.22
same,"Tumour/Muscle, mean",[4]; 5 min post injection,1.19
same,"% ID Urinary (urinary excretion), mean",[4]; 30 min post injection,6.89 % ID
same,"% ID/g Tumour, mean",[4]; 30 min post injection,0.56 % ID/g
same,"Tumour/Blood, mean",[4]; 30 min post injection,0.59
same,"Tumour/Heart, mean",[4]; 30 min post injection,0.57
same,"Tumour/Lung, mean",[4]; 30 min post injection,0.39
same,"Tumour/Muscle, mean",[4]; 30 min post injection,1.6
same,"% ID Urinary (urinary excretion), mean",[4]; 60 min post injection,5.5 % ID
same,"% ID/g Tumour, mean",[4]; 60 min post injection,0.48 % ID/g
same,"Tumour/Blood, mean",[4]; 60 min post injection,0.46
same,"Tumour/Heart, mean",[4]; 60 min post injection,0.68
same,"Tumour/Lung, mean",[4]; 60 min post injection,0.37
same,"Tumour/Muscle, mean",[4]; 60 min post injection,1.41
same,"% ID Urinary (urinary excretion), mean",[4]; 120 min post injection,7.22 % ID
same,"% ID/g Tumour, mean",[4]; 120 min post injection,0.6 % ID/g
same,"Tumour/Blood, mean",[4]; 120 min post injection,0.66
same,"Tumour/Heart, mean",[4]; 120 min post injection,1.23
same,"Tumour/Lung, mean",[4]; 120 min post injection,0.85
same,"Tumour/Muscle, mean",[4]; 120 min post injection,1.87
same,"% ID/G Carotid, mean",[5]; [6],2.67 % ID/G
same,"Carotid/Blood, mean",[5]; [6],0.94
same,"Carotid/Heart, mean",[5]; [6],0.48
same,"Carotid/Lung, mean",[5]; [6],0.62
same,"% ID/G Carotid, mean",[5]; [7],2.00 % ID/G
same,"Carotid/Blood, mean",[5]; [7],1.97
same,"Carotid/Heart, mean",[5]; [7],1.03
same,"Carotid/Lung, mean",[5]; [7],1.71
same,"% ID/G Carotid, mean",[5]; [8],0.25 % ID/G
same,"Carotid/Blood, mean",[5]; [8],0.19
same,"Carotid/Heart, mean",[5]; [8],0.21
same,"Carotid/Lung, mean",[5]; [8],0.17
NC(=O)[C@H](Cc1ccc(O)c(I)c1)NC(=O)CCOCCOCCOCCOCCOCCOCCOCCOCCOCCOCCOCCNC(=O)CCOCCOCCOCCOCCOCCOCCOCCOCCOCCOCCOCCNC(=O)CCN(C1(C(=O)NO)CCCC1)S(=O)(=O)c1ccc(Oc2ccc(F)cc2)cc1 [Compound 32],pKi,MMP-8,8.66
same,pKi,MMP-1,6.48
same,pKi,MMP-9,9.43
same,pKi,MMP-12,9.05
same,pKi,MMP-2,9.21
NC(=O)[C@H](CCCCNC(=O)CON=Cc1ccc(F)cc1)NC(=O)CCN(C1(C(=O)NO)CCCC1)S(=O)(=O)c1ccc(Oc2ccc(F)cc2)cc1 [Compound 46],pKi,MMP-8,9.28
same,pKi,MMP-1,6.77
same,pKi,MMP-9,9.36
same,pKi,MMP-12,9.77
same,pKi,MMP-2,8.71
NCCCC[C@H](NC(=O)CCN(C1(C(=O)NO)CCCC1)S(=O)(=O)c1ccc(Oc2ccc(F)cc2)cc1)C(=O)N[C@@H](CCCCN)C(=O)N[C@@H](CCCCN)C(=O)N[C@@H](CCCCN)C(=O)N[C@@H](CCCCN)C(=O)NCCOCCOCCOCCNC(=O)COCC(=O)N[C@@H](Cc1ccc(O)c(I)c1)C(N)=O [Compound 42],pKi,MMP-9,9.23
same,pKi,MMP-2,8.66
NC(=O)[C@H](Cc1ccc(O)c(I)c1)NC(=O)COCC(=O)NCCOCCOCCOCCNC(=O)[C@H](CCC(=O)O)NC(=O)[C@H](CCC(=O)O)NC(=O)[C@H](CCC(=O)O)NC(=O)[C@H](CCC(=O)O)NC(=O)[C@H](CCC(=O)O)NC(=O)CCN(C1(C(=O)NO)CCCC1)S(=O)(=O)c1ccc(Oc2ccc(F)cc2)cc1 [Compound 38],pKi,MMP-9,9.00
same,pKi,MMP-12,10.30
same,pKi,MMP-2,8.90
